Activity calls are given as the source filed them. The rule behind the calls is not given here.
How the values were obtained:
RAW264.7 [1] = test: In vitro inhibition of NO production at 40 uM concentration in RAW 264.7 cells; format: functional; settings: Mus musculus
[2] = biological target: T1, Prostaglandin G/H synthase 2 (Ovis aries, UniProt P79208); test: In vitro inhibition of Prostaglandin G/H synthase 2 from sheep placental cotyledons; No activity
T1 sequence (P79208 whole entry): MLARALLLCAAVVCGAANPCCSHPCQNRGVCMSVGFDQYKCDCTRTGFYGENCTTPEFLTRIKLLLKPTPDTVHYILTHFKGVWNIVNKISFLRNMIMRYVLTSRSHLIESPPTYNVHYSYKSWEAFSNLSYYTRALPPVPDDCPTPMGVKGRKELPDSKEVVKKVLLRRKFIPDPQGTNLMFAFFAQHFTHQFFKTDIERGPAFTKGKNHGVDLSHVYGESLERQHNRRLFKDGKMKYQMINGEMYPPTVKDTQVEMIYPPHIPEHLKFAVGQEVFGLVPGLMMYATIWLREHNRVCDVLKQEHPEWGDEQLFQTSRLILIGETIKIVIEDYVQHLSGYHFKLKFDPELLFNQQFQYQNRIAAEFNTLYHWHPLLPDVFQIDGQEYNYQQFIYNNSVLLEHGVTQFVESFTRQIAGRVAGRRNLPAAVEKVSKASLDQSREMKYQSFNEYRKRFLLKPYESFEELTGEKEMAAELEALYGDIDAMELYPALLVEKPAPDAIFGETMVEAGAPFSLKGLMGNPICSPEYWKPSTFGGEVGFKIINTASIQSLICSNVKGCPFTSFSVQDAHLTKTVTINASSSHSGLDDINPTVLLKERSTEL

[3] = biological target: T1, Prostaglandin G/H synthase 2; test: In vitro inhibition of Prostaglandin G/H synthase 2 from sheep placental cotyledons
RAW264.7 [4] = test: In vitro inhibition of NO production at 40 uM concentration in RAW 264.7 cells; No activity; format: functional, cell-based; settings: Mus musculus

Row | IC50 [2] | IC50 [3] [µM] | Compound | inhibition at 40 µM (RAW264.7 [1]) [%] | inhibition (RAW264.7 [4])
1 |  |  | C=C[C@@]1(C)CC=C2C(CCC3[C@](C)(CCC(=O)O)CCC[C@@]23C)C1 (stereo not given in full) | 23 | 
2 |  |  | C=C[C@@]1(C)CC=C2C(CCC3[C@](C)(C/C=C\C(=O)O)CCC[C@@]23C)C1 (stereo not given in full) | 77.9 | 
3 |  |  | C=C[C@@]1(C)CC=C2C(CCC3[C@@]2(C)CCC[C@@]3(C)/C=C/C=C/C(=O)O)C1 (stereo not given in full) | 96.5 | 
4 | Not Active |  | C=C[C@@]1(C)CC=C2C(CCC3[C@](C)(CO)CCC[C@@]23C)C1 (stereo not given in full) [ACANTHOL] | 84.8 | 
5 |  | 60.7 | C=C[C@@]1(C)CC=C2C(CCC3[C@](C)(CCC(=O)NS(=O)(=O)c4ccc(I)cc4)CCC[C@@]23C)C1 (stereo not given in full) | 99.5 | 
6 |  |  | C=C[C@@]1(C)CC=C2C(CCC3[C@](C)(CCCC(=O)O)CCC[C@@]23C)C1 (stereo not given in full) | 65.2 | 
7 |  | 37.8 | C=C[C@@]1(C)CC=C2C(CCC3[C@](C)(CCC/C=C/C(=O)O)CCC[C@@]23C)C1 (stereo not given in full) | 98.2 | 
8 | Not Active |  | C=C[C@@]1(C)CC=C2C(CCC3[C@](C)(C(=O)n4ccnc4)CCC[C@@]23C)C1 (stereo not given in full) | 99 | 
9 |  |  | C=C[C@@]1(C)CC=C2C(CCC3[C@@]2(C)CCC[C@@]3(C)/C=C/C(=O)O)C1 (stereo not given in full) | 45.1 | 
10 |  |  | C=C[C@@]1(C)CC=C2C(CCC3[C@](C)(C(=O)NN)CCC[C@@]23C)C1 (stereo not given in full) | 3.4 | 
11 |  |  | C=C[C@@]1(C)CC=C2C(CCC3[C@](C)(CCCCC(=O)O)CCC[C@@]23C)C1 (stereo not given in full) | 99 | 
12 |  | 72.2 | C=C[C@@]1(C)CC=C2C(CCC3[C@](C)(CC(=O)NS(=O)(=O)c4ccc(I)cc4)CCC[C@@]23C)C1 (stereo not given in full) | 94.6 | 
13 |  |  | C=C[C@@]1(C)CC=C2C(CCC3[C@](C)(CC(=O)O)CCC[C@@]23C)C1 (stereo not given in full) |  | inactive
14 | Not Active |  | C=C[C@@]1(C)CC=C2C(CCC3[C@](C)(C(=O)NC)CCC[C@@]23C)C1 (stereo not given in full) | 85.3 | 

From ChEMBL document CHEMBL1147468, “Synthesis and anti-inflammatory effects of novel pimarane diterpenoid analogs” (Bioorg Med Chem Lett, 2004)
